In series [1] the test system is Trypanosoma cruzi. The series can be described thus: Antitrypanosomal activity against Trypanosoma cruzi strain Y trypomastigotes maintained in Rhesus monkey […] cells assessed as decrease in trypomastigotes cell viability incubated for 24 hrs by resazurin dye based colorimetric assay. In kind it is functional, organism-based. For orientation: The colour change of resazurin is a common sign of viable cells or microbes.

The test system of series [2] is Trypanosoma cruzi. Kind of series: Antitrypanosomal activity against Trypanosoma cruzi amastigotes infected in BALB/c mouse peritoneal macrophages assessed as decrease in parasitic load with in the cell incubated for 48 hrs by Giemsa staining based light microscopy. In kind it is functional, organism-based.
Series [3] can be described thus: Cytotoxicity against mouse NCTC-929 cells assessed as reduction in cell viability incubated for 48 hrs by MTT assay. Format: cell-based. To be noted: NCTC-929 (L929) cells. For orientation: Tetrazolium assays rely on reduction of a dye to a coloured formazan, in cell work by metabolically active cells.
Series [4] can be described thus: Selectivity index, ratio of CC50 for mouse NCTC-929 cells to IC50 for Trypanosoma cruzi amastigotes infected in BA;B/c mouse peritoneal macrophages. In kind it is toxicity. The settings on record: read-out: Ratio CC50/IC50.
The subject of series [5] is Trypanosoma cruzi. The series can be described thus: Induction of plasma membrane electric potential depolarization in Trypanosoma cruzi strain Y trypomastigotes at 0.5 mg/ml measured after 60 mins by DiSBAC2(3) dye based flow cytometry. In kind it is functional. In general terms: Flow cytometry measures light scatter and fluorescence of single cells or particles in a stream.

Series [6] relates to Trypanosoma cruzi. Kind of series: Induction of mitochondrial membrane depolarization in Trypanosoma cruzi strain Y trypomastigotes assessed as reduction in mitochondrial membrane potential at 50 uM measured after 120 mins by JC-1 probe based flow cytometry. Format: functional, organism-based.

The source made the active and inactive calls. No cut-off for these calls is given here. Square brackets hold non-standard residues; d marks the D form. Peptide text beside a SMILES is read from it. * marks the point of attachment. NHCH2CH2OH = OCCN*; For = O=C*

Consider `CCCc1ccc(Oc2cc(CCC)cc(OC)c2OC)c(OC)c1`, for which the IC50 (as a rule, the concentration at which inhibition is half-maximal) is over 100 µM in the series with Trypanosoma cruzi [1] and 13.3 µM in the series with Trypanosoma cruzi [2]. Further, in series [3], the CC50 (in general, the concentration at which the toxic effect on the cells reaches its halfway point) at 48 h is over 200 µM. The selectivity ratio in series [4] was over 15.4.
The matching figures for `O=C(Cn1ccnc1[N+](=O)[O-])NCc1ccccc1` [BENZNIDAZOLE]: 17.7 µM, 5 µM, 191 µM and 38.1.
For `COc1cc(CC(C)O)ccc1Oc1cc(CC(C)O)cc(OC)c1OC` (stereo unspecified), the half-inhibitory concentration (IC50) with Trypanosoma cruzi [1] is over 100 µM; in the series with Trypanosoma cruzi [2], over 30 µM. The CC50 at 48 h in series [3] was over 200 µM.
Turning to `CCCOc1c(OC)cc(CCC)cc1Oc1ccc(CCC)cc1OC`, the IC50 was over 100 µM in the series with Trypanosoma cruzi [1] and over 30 µM in the series on Trypanosoma cruzi [2]. In addition, the CC50 at 48 h in series [3] is over 200 µM.
Turning to `CC(C)C[C@@H](NC(=O)[C@H](C)NC(=O)CNC(=O)[C@@H](NC=O)C(C)C)C(=O)N[C@@H](C)C(=O)N[C@@H](C(=O)N[C@H](C(=O)N[C@@H](C(=O)N[C@@H](Cc1c[nH]c2ccccc12)C(=O)N[C@H](CC(C)C)C(=O)N[C@@H](Cc1c[nH]c2ccccc12)C(=O)N[C@H](CC(C)C)C(=O)N[C@@H](Cc1c[nH]c2ccccc12)C(=O)N[C@H](CC(C)C)C(=O)N[C@@H](Cc1c[nH]c2ccccc12)C(=O)NCCO)C(C)C)C(C)C)C(C)C` [GRAMICIDIN D] (For-VGA[dL]A[dV]V[dV]W[dL]W[dL]W[dL]W-NHCH2CH2OH), in the series on Trypanosoma cruzi [5], the Activity is on record as 100%.
As to `N#CC(C#N)=NNc1cccc(Cl)c1`, the inhibition result in the series with Trypanosoma cruzi [6] is “Active”.
